The results in this text go back to ChEMBL document CHEMBL1201862, “PubChem BioAssay data set” (2004).

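Exposure lasted 48 hours, with cells grown in 96-well plates and compounds tested at five concentrations. The concentration for 50% growth inhibition is given as GI50.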 The source made the active and inactive calls. Cut-off read from the data, not from the text of the source: active = GI50 up to about 1.1 µM and inactive = higher. Where only a bound is given, the exact number is not on record here.

Among the test systems are A498; COLO 205; HCT-116; HCT-15; HOP-92; HT-29; IGROV-1; KM12; MOLT-4; Malme-3M; NCI-H226; SF-268; SK-MEL-5; SNB-19; SR; UACC-62; RPMI-8226; NCI/ADR-RES; DU-145; MDA-MB-435.
Assay in all cases: NCI-60 cell line screen, 48 h

In the case of `O=C1CC(c2ccccc2)=Nc2ccccc2N1`, the GI50 in the test with A498 is 24.7 µM (inactive); in the test with COLO 205, 98.9 µM (inactive); with HCT-116, 86.5 µM (inactive); in the test on HCT-15, > 100 µM; with HOP-92, 81.1 µM (inactive); with HT-29 it was > 100 µM (inactive). The GI50 in the test on IGROV-1, in the test with KM12, in the test on MOLT-4, in the test on Malme-3M, with NCI-H226 and in the test with SF-268 was > 100 µM (inactive) throughout. For the same molecule, the GI50 in the test with SK-MEL-5, with SNB-19, with SR and in the test on UACC-62 was > 100 µM (inactive) each time.

On to `O=C1CC(CC(=O)C2CCCCC2=O)C(=O)N1` (stereo not given), for which the GI50 in the test with A498, in the test with COLO 205, in the test with HCT-116, with HOP-92, in the test with HT-29 and in the test on IGROV-1 was > 100 µM (inactive) throughout. In addition, the GI50 in the test with KM12, in the test on Malme-3M, in the test with NCI-H226, in the test with RPMI-8226, with SF-268 and with SNB-19 was > 100 µM (inactive) throughout. Besides, the GI50 in the test on SR and with UACC-62 was > 100 µM (inactive) in each case.

As to `CC1=C(/C=C/C2=CC(=C\C(=O)O)/CC(C3=C(C)CCCC3(C)C)C2)C(C)(C)CCC1` (stereo not given), the GI50 in the test on A498 is 15.2 µM (inactive); in the test with COLO 205, 16.4 µM (inactive); with HCT-116, 15 µM (inactive); with HOP-92, 11.2 µM (inactive); in the test on HT-29, 13.6 µM (inactive); in the test with IGROV-1, 13.2 µM (inactive). The GI50 with KM12 was 11.9 µM (inactive); in the test on MOLT-4, 3.01 µM (inactive); in the test on Malme-3M, 18.7 µM (inactive); in the test on NCI-H226, 11.2 µM (inactive); in the test on RPMI-8226, 5.36 µM (inactive); with SF-268 it was 20.9 µM (inactive). Further, the GI50 in the test on SK-MEL-5 is 14.8 µM (inactive); with SNB-19, 14.3 µM (inactive); with SR, 5.65 µM (inactive); in the test with UACC-62, 10.9 µM (inactive).

In the case of `COc1cc(C2C3=C(CCCC3=O)N(c3ccc(C)cc3)C3=C2C(=O)CCC3)c([N+](=O)[O-])cc1OC`, the GI50 is > 100 µM (inactive) in the test with A498; 68.1 µM in the test on HCT-15; 52 µM (inactive) with HOP-92; 59.4 µM (inactive) in the test on HT-29; > 100 µM (inactive) with IGROV-1; > 100 µM (inactive) with KM12. In addition, the GI50 was 24.2 µM (inactive) in the test with MOLT-4; 76.9 µM (inactive) in the test with NCI-H226; > 100 µM (inactive) in the test on NCI/ADR-RES; 57.3 µM (inactive) in the test with RPMI-8226; 97.5 µM (inactive) in the test on SF-268; 64.6 µM (inactive) in the test with SK-MEL-5. In addition, the figures for the GI50 with SNB-19, in the test on SR and with UACC-62 were > 100 µM (inactive), 54.2 µM (inactive) and 90.4 µM (inactive), respectively.

Consider `CC(C)/C(Cl)=N\OC(=O)Nc1ccc(F)cc1F`, for which the GI50 in the test with A498 was 17 µM (inactive); in the test on COLO 205, 1.87 µM (inactive); with DU-145, 17.8 µM (inactive); in the test on HCT-116, 3.78 µM (inactive); with HCT-15, 7.67 µM; with HOP-92 it was 1.82 µM (inactive). The GI50 in the test on HT-29 was 3.82 µM (inactive); in the test with IGROV-1 it was 16 µM (inactive); with KM12, 17.7 µM (inactive); in the test on MOLT-4, 1.85 µM (inactive); in the test on Malme-3M, 1.66 µM (inactive); with NCI-H226, 15.8 µM (inactive). The GI50 with NCI/ADR-RES was 7.05 µM (inactive); in the test on RPMI-8226, 4.69 µM (inactive); in the test with SF-268 it was 19.5 µM (inactive); in the test with SK-MEL-5, 14.3 µM (inactive); with SNB-19, 19.5 µM (inactive); with SR it was 1.67 µM (inactive). The GI50 with UACC-62 was 16.9 µM (inactive).

Take `CC1=CC(=O)/C(=C(/C)NCCN(CCN/C(C)=C2\C(=O)C=C(C)OC2=O)CCN/C(C)=C2\C(=O)C=C(C)OC2=O)C(=O)O1`: the GI50 in the test with COLO 205 is > 100 µM (inactive); in the test with HCT-116, > 100 µM (inactive); in the test on HCT-15, > 100 µM; in the test with HT-29, > 100 µM (inactive); in the test with IGROV-1 it was > 100 µM (inactive); with KM12 it was > 100 µM (inactive). The GI50 in the test on MDA-MB-435, in the test on MOLT-4, in the test on NCI/ADR-RES, with RPMI-8226, with SF-268 and in the test with SK-MEL-5 was > 100 µM (inactive) each time. Moreover, the GI50 in the test on SNB-19 and with SR was > 100 µM (inactive) in each case.

Take `Cc1ccc(S(=O)(=O)N(/N=C(\N)Oc2ccc(Cl)cc2)C(=N)Oc2ccc(Cl)cc2)cc1`: the GI50 in the test with A498 was > 100 µM (inactive); in the test on COLO 205, > 100 µM (inactive); with HCT-116 it was > 100 µM (inactive); with HCT-15, > 100 µM; in the test with HOP-92, > 100 µM (inactive); in the test with HT-29, > 100 µM (inactive). Also, the GI50 in the test with IGROV-1, with KM12, with MOLT-4, with Malme-3M, in the test with NCI-H226 and in the test on SF-268 was > 100 µM (inactive) throughout. Moreover, the GI50 in the test with SK-MEL-5, with SNB-19, in the test with SR and with UACC-62 was > 100 µM (inactive) in each case.

Consider `O=C1NC(=S)NC(=O)C1=Cc1ccc([N+](=O)[O-])o1`, for which the GI50 in the test with A498 is > 100 µM (inactive); in the test with COLO 205, 20.2 µM (inactive); in the test on HCT-116 it was 15 µM (inactive); with HCT-15, 17 µM; with HOP-92 it was 20.7 µM (inactive); in the test with HT-29, 23.2 µM (inactive). The GI50 with IGROV-1 was 21.6 µM (inactive); with KM12, 46.6 µM (inactive); with MOLT-4, 19.7 µM (inactive); with Malme-3M, 14.7 µM (inactive); with NCI-H226 it was > 100 µM (inactive); in the test on RPMI-8226 it was 20.3 µM (inactive). Further, the GI50 with SF-268 was 39.8 µM (inactive); in the test with SK-MEL-5 it was 23.4 µM (inactive); in the test with SNB-19 it was > 100 µM (inactive); in the test on SR, 19.6 µM (inactive); with UACC-62, 19.4 µM (inactive).

In the case of `CCCCCCCCCCCCCCCCOCC(COP(=O)([O-])OCC[n+]1ccc(N(C)C)cc1)OCC` (stereo not given), the GI50 in the test with COLO 205 was 13.6 µM (inactive); in the test with DU-145, 16.5 µM (inactive); in the test with HCT-116, 11.3 µM (inactive); in the test on HCT-15, 18.2 µM; with HOP-92, 17 µM (inactive); in the test with HT-29, 13.9 µM (inactive). The GI50 in the test on IGROV-1 was 16.9 µM (inactive); in the test on KM12 it was 0.0527 µM (active); with MDA-MB-435, 17.7 µM (inactive); with MOLT-4, 4.52 µM (inactive); in the test with Malme-3M, 18.5 µM (inactive); in the test with NCI-H226 it was 17.2 µM (inactive). For the same molecule, the GI50 with RPMI-8226 is 4.12 µM (inactive); in the test with SF-268, 10.8 µM (inactive); in the test on SK-MEL-5, 17.8 µM (inactive); in the test with SNB-19, 2.8 µM (inactive); in the test on SR, 4.95 µM (inactive); with UACC-62, 12.7 µM (inactive).

On to `Cc1ccc(/N=N/c2ccc(N)cc2C)c(S(N)(=O)=O)c1`, for which the GI50 in the test on A498 was > 100 µM (inactive); in the test with COLO 205, 76.7 µM (inactive); with DU-145, > 100 µM (inactive); in the test on HCT-116, 75.3 µM (inactive); with HCT-15, 71.4 µM; in the test on HOP-92, 32.1 µM (inactive). For the same molecule, the GI50 in the test on HT-29 was 82.4 µM (inactive); in the test on IGROV-1, 77.3 µM (inactive); in the test with KM12, > 100 µM (inactive); in the test on MOLT-4, 64 µM (inactive); in the test on Malme-3M, > 100 µM (inactive); in the test on NCI-H226, > 100 µM (inactive). The GI50 was 76.6 µM (inactive) with NCI/ADR-RES; 70.8 µM (inactive) in the test with RPMI-8226; > 100 µM (inactive) in the test on SF-268; 77.6 µM (inactive) in the test with SK-MEL-5; > 100 µM (inactive) in the test with SNB-19; 0.478 µM (active) in the test with SR. Besides, the GI50 in the test with UACC-62 is 88.9 µM (inactive).

Turning to `COc1cc2c3cc1Oc1c(OC)c(OC)cc4c1[C@@H](Cc1ccc(O)c(c1)Oc1ccc(cc1)C[C@@H]3N(C)CC2)N(C)CC4.c1ccccc1`, the GI50 in the test with A498 is 20.3 µM (inactive); in the test with HCT-116, 9.16 µM (inactive); in the test with HCT-15, 12.3 µM; in the test on HOP-92 it was 8.28 µM (inactive); in the test with HT-29, 10.7 µM (inactive); with IGROV-1, 20 µM (inactive). Also, the GI50 was 10.9 µM (inactive) with KM12; 10.9 µM (inactive) in the test with MOLT-4; 17.2 µM (inactive) with Malme-3M; 22.2 µM (inactive) in the test on NCI-H226; 16.3 µM (inactive) in the test on RPMI-8226; 23.2 µM (inactive) in the test with SF-268. In addition, the GI50 in the test on SK-MEL-5 was 3.89 µM (inactive); in the test with SNB-19 it was 20.4 µM (inactive); with SR, 2.33 µM (inactive); with UACC-62 it was 16 µM (inactive).

Consider `CC1(C)CC(O)C(C)(C)[C@@H](O)C1` (stereo not given in full), for which the GI50 in the test with COLO 205 was > 100 µM (inactive); in the test with DU-145, > 100 µM (inactive); with HCT-116, > 100 µM (inactive); with HCT-15, > 100 µM; in the test on HT-29, > 100 µM (inactive); in the test with IGROV-1, > 100 µM (inactive). The GI50 in the test on KM12, with MOLT-4, in the test on Malme-3M, in the test with NCI-H226, in the test with NCI/ADR-RES and in the test on SF-268 was > 100 µM (inactive) each time. Besides, the GI50 with SK-MEL-5, in the test on SNB-19 and in the test with UACC-62 was > 100 µM (inactive) in each case.
